Source: patent US7247440B2, “Method of screening preventives or remedies for obesity” (Takeda Pharmaceutical Company Limited, priority 2001, dated 2007)
Where a SMILES comes first, the peptide text is derived from it.

Target: T1, GPR7 (Homo sapiens, UniProt P48145)
T1 construct: expressed in transfected cells; host or cells: CHO dhfr- cells, plasmid pAKKO-Human GPR7 (high-expression clones 7, 8, 14)
T1 sequence (P48145 1-328): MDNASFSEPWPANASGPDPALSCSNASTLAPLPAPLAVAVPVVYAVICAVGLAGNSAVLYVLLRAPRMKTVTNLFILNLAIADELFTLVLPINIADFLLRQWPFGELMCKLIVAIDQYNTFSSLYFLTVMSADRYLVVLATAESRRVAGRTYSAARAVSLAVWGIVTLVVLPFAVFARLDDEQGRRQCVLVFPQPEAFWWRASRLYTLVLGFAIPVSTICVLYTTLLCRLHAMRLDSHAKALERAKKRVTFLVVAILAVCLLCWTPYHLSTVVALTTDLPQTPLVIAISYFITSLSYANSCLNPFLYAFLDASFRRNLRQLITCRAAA
Assay: GTPγS-binding promoting activity on GPR7-expressed CHO cell membrane fraction
Assay type: biochemical
Protocol: The [^35S]-guanosine 5′-(γ-thio)triphosphate (GTPγS) binding promoting activity on the GPR7-expressed CHO cell membrane fraction was assayed by the following procedures.
The GPR7-expressed CHO cell membrane fraction prepared by the method described in EXAMPLE 2 was diluted with a membrane dilution buffer (50 mM Tris-hydrochloride buffer (pH 7.4), 5 mM MgCl2, 150 mM NaCl, 1 μM GDP and 0.1% BSA) to prepare a cell membrane fraction solution for assay having a protein level of 30 μg/ml. To 200 μl of the cell membrane fraction solution for assay were added 2 μl of 50 nM [^35S]-guanosine 5′-(γ-thio)triphosphate (NEN Co.) and 2 μl of a sample solution in DMSO, which was adjusted to an appropriate concentration. The resulting mixture was kept warm at 25° C. for an hour. The mixture was filtrated through a filter. After the filter was washed twice with 1.5 ml of a wash buffer (50 mM Tris-hydrochloride buffer (pH 7.4), 5 mM MgCl2, 1 mM EDTA and 0.1% BSA), radioactivity of the filter was measured with a liquid scintillation counter.
Following the procedures described in 1) above, hGPR8L (1-23) or hGPR8L (1-30) were given to the GPR7-expressed CHO cell membrane fraction in various concentrations to assay for the GTPγS-binding promoting activity. […]

| EC50 [nM] | Compound |
| --- | --- |
| > 10000 | CSCC[C@H](NC(=O)[C@H](CC(C)C)NC(=O)[C@H](CC(C)C)NC(=O)CNC(=O)[C@H](C)NC(=O)[C@H](C)NC(=O)[C@H](CCCNC(=N)N)NC(=O)CNC(=O)[C@@H](NC(=O)[C@@H](NC(=O)[C@H](Cc1c[nH]cn1)NC(=O)[C@H](Cc1ccc(O)cc1)NC(=O)[C@H](CCCNC(=N)N)NC(=O)[C@@H]1CCCN1C(=O)[C@H](CO)NC(=O)[C@H](C)NC(=O)[C@@H](NC(=O)[C@@H](N)Cc1c[nH]cn1)C(C)C)[C@@H](C)O)C(C)C)C(=O)NCC(=O)N[C@@H](CC(C)C)C(=O)O [hGPR8L(4–23)] (H-HVASPRYHTVGRAAGLLMGL-OH; C-terminus assumed) |
| > 10000 | CSCC[C@H](NC(=O)[C@H](CC(C)C)NC(=O)[C@H](CC(C)C)NC(=O)CNC(=O)[C@H](C)NC(=O)[C@H](C)NC(=O)[C@H](CCCNC(=N)N)NC(=O)CNC(=O)[C@@H](NC(=O)[C@@H](NC(=O)[C@H](Cc1c[nH]cn1)NC(=O)[C@H](Cc1ccc(O)cc1)NC(=O)[C@@H](N)CCCNC(=N)N)[C@@H](C)O)C(C)C)C(=O)NCC(=O)N[C@@H](CC(C)C)C(=O)O [hGPR8L(9–23), Arg-Tyr-His-Thr-Val-Gly-Arg-Ala-Ala-Gly-Leu-Leu-Met-Gly-Leu] (H-RYHTVGRAAGLLMGL-OH; C-terminus assumed) |
